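Method: 48-hour compound exposure of cells in 96-well plates, five concentrations, linear interpolation of endpoints. The concentration for 50% growth inhibition is given as GI50.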 Calls of active or inactive are those of the source. No stated cut-off is given here; in the data, active = GI50 up to about 1.1 µM and inactive = higher.

Test systems include A498; A549; ACHN; CCRF-CEM; COLO 205; HCC 2998; HOP-92; LOX IMVI; MCF7; NCI-H226; OVCAR-5; PC-3; RPMI-8226; SF-295; SK-MEL-5; SN12C; SNB-19; SNB-75; SR.
What all share (test): DTP human tumour cell line panel, 48 h

Turning to `CC[C@@]1(O)C(=O)OCc2c1cc1n(c2=O)Cc2c-1nc1ccccc1c2/C=N\NC(=O)C(N)Cc1c[nH]c2ccccc12` (stereo not given in full), the concentration for 50% growth inhibition (GI50) (usually the concentration giving 50% growth inhibition) is 0.499 µM (active) in the assay with A498; 0.301 µM (active) in the assay with A549; < 0.0188 µM (active) with ACHN; < 0.01 µM (active) in the assay with CCRF-CEM; 18.2 µM (inactive) in the assay with COLO 205; 2.3 µM (inactive) with HCC 2998. The GI50 with HOP-92 is 3.8 µM (inactive); in the assay on LOX IMVI, 0.0675 µM (active); in the assay with MCF7 it was 0.0668 µM (active); in the assay on NCI-H226 it was 1.11 µM (active); with OVCAR-5 it was 13.1 µM (inactive); with PC-3, 1.29 µM (inactive). The GI50 with RPMI-8226 was 0.78 µM (active); with SF-295 it was 0.0887 µM (active); with SK-MEL-5 it was 0.521 µM (active); in the assay with SN12C, 0.108 µM (active); in the assay with SNB-19 it was < 0.0198 µM (active); in the assay on SNB-75, 0.0745 µM (active). Also, the 50% growth inhibitory concentration (GI50) in the assay with SR is < 0.01 µM (active).

Regarding `C[C@@H]1Nc2cc(NC(=O)OCCF)nc(N)c2N=C1c1ccccc1`, the GI50 in the assay on A498 was 19.8 µM (inactive); with A549 it was < 0.0001 µM (active); with ACHN, 24.8 µM (inactive); with CCRF-CEM, < 0.0001 µM (active); in the assay on COLO 205 it was < 0.0001 µM (active); with HCC 2998 it was < 0.01 µM (active). Also, the GI50 in the assay on HOP-92 is > 100 µM (inactive); in the assay with LOX IMVI, < 0.0001 µM (active); in the assay with MCF7, 0.0208 µM (active); in the assay on NCI-H226, 42.2 µM (inactive); in the assay on OVCAR-5, < 0.0001 µM (active); in the assay on PC-3, < 0.0001 µM (active). Besides, the concentration for 50% growth inhibition (GI50) in the assay with RPMI-8226 was < 0.0001 µM (active); in the assay with SF-295, < 0.0001 µM (active); in the assay with SK-MEL-5, < 0.0001 µM (active); in the assay on SN12C, < 0.0001 µM (active); with SNB-19 it was 0.0409 µM (active); in the assay with SNB-75, 32.7 µM (inactive). In addition, in the assay on SR, the 50% growth inhibitory concentration (GI50) was < 0.0001 µM (active).

On to `CC(C)(C)c1cc(C(=O)/C=C/c2c(Cl)cccc2Cl)cc(C(C)(C)C)c1O`, for which the GI50 with A498 was 27.2 µM (inactive); in the assay with A549, 18.8 µM (inactive); with ACHN, 14.7 µM (inactive); with CCRF-CEM, 4.04 µM (inactive); in the assay on COLO 205, 15.9 µM (inactive); with HCC 2998, 14.1 µM (inactive). For the same molecule, the GI50 with HOP-92 is 25.8 µM (inactive); with LOX IMVI, 13.6 µM (inactive); in the assay with MCF7, 8.34 µM (inactive); in the assay on NCI-H226 it was 17.8 µM (inactive); in the assay with OVCAR-5, 19.2 µM (inactive); in the assay on PC-3, 11.4 µM (inactive). In addition, the GI50 was 3.8 µM (inactive) with RPMI-8226; 11.5 µM (inactive) in the assay with SF-295; 11.4 µM (inactive) in the assay on SK-MEL-5; 21 µM (inactive) in the assay with SN12C; 11.9 µM (inactive) with SNB-19; 4.93 µM (inactive) in the assay with SNB-75. Further, in the assay on SR, the GI50 was 3.86 µM (inactive).

In the case of `Cc1n[nH]c(=O)n1-c1cccnc1`, the GI50 with A498, with A549, in the assay on ACHN, with CCRF-CEM, in the assay with COLO 205 and in the assay on HCC 2998 was > 100 µM (inactive) each time. In addition, the GI50 with HOP-92, in the assay with LOX IMVI, in the assay on MCF7, in the assay with NCI-H226, in the assay on OVCAR-5 and with PC-3 was > 100 µM (inactive) in each case. The GI50 in the assay on RPMI-8226, in the assay with SF-295, with SK-MEL-5, in the assay on SN12C, in the assay on SNB-19 and in the assay with SNB-75 was > 100 µM (inactive) each time. The GI50 in the assay on SR is > 100 µM (inactive).

Regarding `Cn1c2ccccc2n2c3ccccc3c(=O)c(C#N)c12`, the GI50 is 18.3 µM (inactive) with A498; 4.94 µM (inactive) in the assay with A549; 2.91 µM (inactive) in the assay on ACHN; 8.38 µM (inactive) in the assay with CCRF-CEM; 9.2 µM (inactive) in the assay with COLO 205; 6.56 µM (inactive) with HCC 2998. Also, the GI50 in the assay with HOP-92 was 15.3 µM (inactive); in the assay on LOX IMVI it was 4.38 µM (inactive); in the assay on MCF7 it was 10.1 µM (inactive); in the assay with NCI-H226, 2.68 µM (inactive); in the assay with OVCAR-5, > 70 µM (inactive); with PC-3, 22.8 µM (inactive). Also, the GI50 was 3.44 µM (inactive) in the assay with RPMI-8226; 12.6 µM (inactive) with SF-295; 2.27 µM (inactive) with SK-MEL-5; 17.9 µM (inactive) in the assay with SN12C; 16.5 µM (inactive) in the assay on SNB-19; 15 µM (inactive) in the assay with SNB-75. In addition, the GI50 in the assay with SR is 2.84 µM (inactive).

As to `COc1cc(/C=C/c2cc(=O)cc(/C=C/c3ccc(O)c(OC)c3)o2)ccc1O`, the GI50 in the assay on A498 was > 100 µM (inactive); with A549 it was 64.1 µM (inactive); with ACHN, 48.1 µM (inactive); with CCRF-CEM, 0.324 µM (active); in the assay with COLO 205 it was > 100 µM (inactive); in the assay with HCC 2998, 13.6 µM (inactive). Further, the GI50 in the assay on HOP-92 is 17.9 µM (inactive); in the assay on LOX IMVI, 29.6 µM (inactive); with MCF7 it was 6.27 µM (inactive); in the assay with NCI-H226, 29.3 µM (inactive); in the assay with OVCAR-5, > 100 µM (inactive); with PC-3, > 85.9 µM (inactive). In addition, the concentration for 50% growth inhibition (GI50) in the assay with RPMI-8226 was 1.1 µM (active); in the assay with SF-295, 32.4 µM (inactive); in the assay on SK-MEL-5, 13.6 µM (inactive); in the assay with SN12C, > 60.3 µM (inactive); in the assay with SNB-19, > 92 µM (inactive); in the assay with SNB-75 it was 29.9 µM (inactive). In addition, the GI50 with SR was > 23.6 µM (inactive).

`O=C(/C=C/c1ccccc1O)CC(=O)/C=C/c1ccccc1O`: the GI50 in the assay with A498 was 23.3 µM (inactive); with A549 it was 7.14 µM (inactive); in the assay on ACHN, 5.92 µM (inactive); in the assay with CCRF-CEM, 3.1 µM (inactive); with COLO 205, 3.95 µM (inactive); with HCC 2998, 10.5 µM (inactive). Moreover, the GI50 with HOP-92 is 5.81 µM (inactive); with LOX IMVI, 1.32 µM (inactive); in the assay with MCF7, 4.14 µM (inactive); with NCI-H226, > 10 µM (inactive); in the assay with OVCAR-5, > 10 µM (inactive); in the assay with PC-3, 5.28 µM (inactive). Further, the GI50 with RPMI-8226 was 2.93 µM (inactive); in the assay on SF-295 it was 6.53 µM (inactive); in the assay with SK-MEL-5 it was 5.32 µM (inactive); in the assay with SN12C, 5.38 µM (inactive); in the assay with SNB-19, 9.84 µM (inactive); in the assay with SNB-75, > 46.2 µM (inactive). Further, the GI50 in the assay on SR was 2.67 µM (inactive).

For `CSc1ccc2c(cc1=O)[C@@H](NC(C)=O)CCc1cc(O)c(O)c(O)c1-2`, the GI50 in the assay with A498 was 23.3 µM (inactive); with A549, 20.1 µM (inactive); with ACHN, 22.3 µM (inactive); in the assay with CCRF-CEM it was 4.98 µM (inactive); in the assay on COLO 205 it was 30.4 µM (inactive); with HCC 2998, 23 µM (inactive). In addition, the GI50 in the assay on HOP-92 is 23.7 µM (inactive); with LOX IMVI it was 23 µM (inactive); in the assay with MCF7, 4.81 µM (inactive); in the assay on NCI-H226, 15.4 µM (inactive); with OVCAR-5 it was 17.1 µM (inactive); in the assay on PC-3, 84.3 µM (inactive). Also, the GI50 was 12.9 µM (inactive) in the assay with RPMI-8226; 13.3 µM (inactive) in the assay on SF-295; 32.4 µM (inactive) in the assay on SK-MEL-5; 20.2 µM (inactive) in the assay on SN12C; 29 µM (inactive) in the assay on SNB-19; 14.3 µM (inactive) in the assay on SNB-75. Besides, the GI50 in the assay with SR is 7.8 µM (inactive).

As for `CCOP(=O)(O)C(Nc1ccc(/N=N/c2ccccc2)cc1)c1ccc(C(Nc2ccc(/N=N/c3ccccc3)cc2)P(=O)(O)OCC)cc1` (stereo not given), the GI50 was 32 µM (inactive) with A498; 29.7 µM (inactive) in the assay with A549; > 100 µM (inactive) with ACHN; 22.1 µM (inactive) with CCRF-CEM; 15.3 µM (inactive) in the assay with COLO 205; 17.9 µM (inactive) in the assay on HCC 2998. Moreover, the GI50 was 22.1 µM (inactive) in the assay on HOP-92; 15.6 µM (inactive) in the assay with LOX IMVI; 48.3 µM (inactive) in the assay on MCF7; 40.3 µM (inactive) with NCI-H226; 22.4 µM (inactive) in the assay with OVCAR-5; 17.1 µM (inactive) in the assay with PC-3. Moreover, the GI50 in the assay on RPMI-8226 was 23.7 µM (inactive); with SF-295, 18.9 µM (inactive); in the assay on SK-MEL-5 it was 16.6 µM (inactive); in the assay with SN12C, 19.2 µM (inactive); with SNB-19, 21.5 µM (inactive); in the assay on SNB-75 it was 14.7 µM (inactive). The GI50 in the assay on SR is 19.8 µM (inactive).

For `CSC1=NN(C(C)=O)C(C(OC(C)=O)C(OC(C)=O)C(OC(C)=O)C(COC(C)=O)OC(C)=O)S1` (stereo not given), the GI50 in the assay with A498, in the assay on A549, in the assay on ACHN, in the assay with CCRF-CEM, in the assay with COLO 205 and in the assay on HCC 2998 was > 100 µM (inactive) each time. The GI50 in the assay with HOP-92, with LOX IMVI, in the assay on MCF7, in the assay on NCI-H226, with OVCAR-5 and in the assay on PC-3 was > 100 µM (inactive) in each case. The GI50 with RPMI-8226, in the assay with SF-295, in the assay on SK-MEL-5, with SN12C, in the assay on SNB-19 and in the assay on SNB-75 was > 100 µM (inactive) in each case. Further, the GI50 with SR was > 100 µM (inactive).

Source of the values: ChEMBL document CHEMBL1201862, “PubChem BioAssay data set” (2004).
